Test results as given in patent US8236789B2, “1-adamantyl azetidin-2-one derivatives and drugs containing same” (Kowa Company, Ltd., priority 2008, dated 2012).

Key:
mouse 11β-HSD1 = target: T1, mouse 11β-HSD1 (Mus musculus, UniProt P50172); test: Enzyme inhibitory activity assay, lysate of CHO-K1 cells stably expressing mouse 11β-HSD1, cortisol by competitive ELISA; format: biochemical; details: Table 2; cell lysate, 100 nmol/L cortisone, NADPH, 37° C. 1 hour; read-out: in vitro assay (IC50 uM) m HSD1
T1 construct: expressed in transfected cells
Method: (§1) 1. Human 11β-HSD1-, Human 11β-HSD2- and Mouse 11β-HSD1-Gene Clonings and Establishment of Stably Expressing Cells
(§2) Human 11β-HSD1- and human 11β-HSD2-expressing vectors were transfected into human kidney-derived cell line, HEK293 cells, using a transfection reagent, jet PEI (Funakoshi). Mouse 11β-HSD1 was transfected to Chinese hamster ovary-derived cell line, CHO-K1 cells. Selection was conducted with 200-400 μg/mL of zeocine (Invitrogen) to provide stably expressing-cell clones. The stably expressing cells were suspended in buffer solution A (20 mmol/L Tris-HCl, pH 7.4, 250 mmol/L sucrose, 1 mmol/L EGTA, 1 mmol/L EDTA, 1 mmol/L MgCl2), sonicated, and then stored at −80° C.
(§3) 2. Assay of Enzyme Inhibitory Activity
(§4) An enzymatic reaction was conducted using a polystyrene 96-well plate. Each well was added with 1 μL of a test agent dissolved in DMSO and then diluted (0.003 to 3 mmol/L), and further added with 10 μL of cell lysate diluted to a concentration of 0.1 mg/mL to 0.4 mg/mL. Next, 90 μL of buffer solution A containing substrate (100 nmol/L cortisone or cortisol) and coenzyme (400 μmol/L NADPH or NAD+) was added and the mixture was incubated at 37° C. for 1 hour. The enzymatic reaction was stopped by treating at 95° C. for 3 minutes. Cortisol that was present in the reaction solution was determined by a competitive ELISA shown below.
(§5) Anti-rabbit IgG antibody (Chemi-con) diluted to 2 μg/mL with carbonate buffer solution (pH 9.6) was added in 100 μL each to a 96-well immuno plate (Nunc) and immobilized by an incubation at 4° C. overnight. […] After washed three times with buffer solution B containing 0.05% Tween 20, the plates were allowed to develop color by adding 100 μL, of color reagent, TMB (Moss). The color reaction was stopped by 25 μL of 1 mol/L sulfuric acid and the absorbance was determined at 450 nm with a microplate reader (Molecular Device, VersaMax).

human 11β-HSD1 = target: T2, human 11β-HSD1 (Homo sapiens, UniProt P28845); test: Enzyme inhibitory activity assay, lysate of HEK293 cells stably expressing human 11β-HSD1, cortisol by competitive ELISA; format: biochemical; details: Table 1; cell lysate, 100 nmol/L cortisone, NADPH, 37° C. 1 hour; read-out: in vitro assay (IC50 uM) h HSD1
T2 construct: expressed in transfected cells
Method: as §1, §2, §3, §4, §5

T1 sequence (P50172 whole entry): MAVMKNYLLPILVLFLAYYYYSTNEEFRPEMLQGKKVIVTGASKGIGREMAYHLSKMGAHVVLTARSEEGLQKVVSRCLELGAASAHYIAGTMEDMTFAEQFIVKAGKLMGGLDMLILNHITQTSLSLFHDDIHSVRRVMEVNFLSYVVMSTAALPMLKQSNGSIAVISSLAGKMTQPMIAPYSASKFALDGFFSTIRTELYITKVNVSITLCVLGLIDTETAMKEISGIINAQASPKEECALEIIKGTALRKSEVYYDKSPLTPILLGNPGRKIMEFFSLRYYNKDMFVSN
T2 sequence (P28845 whole entry): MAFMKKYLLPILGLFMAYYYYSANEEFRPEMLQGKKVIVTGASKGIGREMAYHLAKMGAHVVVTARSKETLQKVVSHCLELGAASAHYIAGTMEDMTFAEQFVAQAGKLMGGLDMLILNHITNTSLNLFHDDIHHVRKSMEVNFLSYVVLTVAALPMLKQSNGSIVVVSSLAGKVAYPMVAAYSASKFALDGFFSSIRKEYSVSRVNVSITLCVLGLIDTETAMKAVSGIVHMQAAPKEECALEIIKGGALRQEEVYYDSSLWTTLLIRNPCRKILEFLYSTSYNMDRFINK

| Compound | IC50 (mouse 11β-HSD1) [µM] | IC50 (human 11β-HSD1) [µM] |
| --- | --- | --- |
| CC1(C)C(=O)N(C2C3CC4CC(C3)CC2C4)C1c1cccc(Cl)c1Cl (stereo not drawn) [Example 2, 1-(adamantan-2-yl)-3,3-dimethyl-4-(2,3-dichlorophenyl)azetidin-2-one] | 0.054 | 0.0054 |
| CC1(C)C(=O)N([C@H]2C3CC4CC2C[C@](Cl)(C4)C3)C1c1cccc(Cl)c1Cl (stereo partly drawn) [Example 3, trans-1-(5-chloroadamantan-2-yl)-3,3-dimethyl-4-(2,3-dichlorophenyl)azetidin-2-one] | 0.31 | 0.057 |
| CC1(C)C(=O)N([C@H]2C3CC4CC2C[C@@](Cl)(C4)C3)C1c1cccc(Cl)c1Cl (stereo partly drawn) [Example 4, cis-1-(5-chloroadamantan-2-yl)-3,3-dimethyl-4-(2,3-dichlorophenyl)azetidin-2-one] | 0.34 | 0.046 |
| CC1(C)C(=O)N([C@H]2C3CC4CC2C[C@](Cl)(C4)C3)C1c1cccc2ccccc12 (stereo partly drawn) [Example 5, trans-1-(5-chloroadamantan-2-yl)-3,3-dimethyl-4-(naphthalen-1-yl)azetidin-2-one] | 0.66 | 0.88 |
| CC1(C)C(=O)N([C@H]2C3CC4CC2C[C@@](Cl)(C4)C3)C1c1cccc2ccccc12 (stereo partly drawn) [Example 6, cis-1-(5-chloroadamantan-2-yl)-3,3-dimethyl-4-(naphthalen-1-yl)azetidin-2-one] | 0.87 | 0.56 |
| COC(=O)[C@]12CC3CC(C1)[C@@H](N1C(=O)C(C)(C)C1c1cccc(Cl)c1Cl)C(C3)C2 (stereo partly drawn) [Example 7, methyl trans-4-[2-(2,3-dichlorophenyl)-3,3-dimethyl-4-oxoazetidin-1-yl]-1-adamantane carboxylate] | 0.25 | 0.013 |
| CC1(C)C(=O)N([C@H]2C3CC4CC2C[C@](C(=O)O)(C4)C3)C1c1cccc(Cl)c1Cl (stereo partly drawn) [Example 8, trans-4-[2-(2,3-Dichlorophenyl)-3,3-dimethyl-4-oxoazetidin-1-yl]-1-adamantane carboxylic acid] |  | 0.066 |
| CC1(C)C(=O)N([C@H]2C3CC4CC2C[C@](C(N)=O)(C4)C3)C1c1cccc(Cl)c1Cl (stereo partly drawn) [Example 9, trans-4-[2-(2,3-dichlorophenyl)-3,3-dimethyl-4-oxoazetidin-1-yl]-1-adamantane carboxyamide] | 0.035 | 0.005 |
| COC(=O)[C@]12CC3CC(C1)[C@@H](N1C(=O)C(C)(C)C1c1cccc4ccccc14)C(C3)C2 (stereo partly drawn) [Example 10, methyl trans-4-[2-(naphthalen-1-yl)-3,3-dimethyl-4-oxoazetidin-1-yl]-1-adamantane carboxylate] | 0.034 | 0.019 |
| CC1(C)C(=O)N([C@H]2C3CC4CC2C[C@](C(=O)O)(C4)C3)C1c1cccc2ccccc12 (stereo partly drawn) [Example 11, trans-4-[2-(naphthalen-1-yl)-3,3-dimethyl-4-oxoazetidin-1-yl]-1-adamantane carboxylic acid] | 0.42 | 0.26 |
| CC1(C)C(=O)N([C@H]2C3CC4CC2C[C@](C(N)=O)(C4)C3)C1c1cccc2ccccc12 (stereo partly drawn) [Example 12, trans-4-[2-(naphthalen-1-yl)-3,3-dimethyl-4-oxoazetidin-1-yl]-1-adamantane carboxyamide] | 0.023 | 0.022 |
| COC(=O)[C@]12CC3CC(C1)[C@@H](N1C(=O)C(C)(C)C1c1cccc4c1OCO4)C(C3)C2 (stereo partly drawn) [Example 13, methyl trans-4-[2-(benzo[d][1,3]dioxol-4-yl)-3,3-dimethyl-4-oxoazetidin-1-yl]-1-adamantane carboxylate] | 0.24 | 0.051 |
| CC1(C)C(=O)N([C@H]2C3CC4CC2C[C@](C(=O)O)(C4)C3)C1c1cccc2c1OCO2 (stereo partly drawn) [Example 14, trans-4-[2-(benzo[d][1,3]dioxol-4-yl)-3,3-dimethyl-4-oxoazetidin-1-yl]-1-adamantane carboxylic acid] | 0.0095 | 0.013 |
| CC1(C)C(=O)N([C@H]2C3CC4CC2C[C@](C(N)=O)(C4)C3)C1c1cccc2c1OCO2 (stereo partly drawn) [Example 15, trans-4-[2-(benzo[d][1,3]dioxol-4-yl)-3,3-dimethyl-4-oxoazetidin-1-yl]-1-adamantane carboxyamide] | 0.031 | 0.031 |
| CC1(C)C(=O)N([C@H]2C3CC4CC2C[C@](C(N)=O)(C4)C3)C1c1cccc2cnccc12 (stereo partly drawn) [Example 16, trans-4-[2-(isoquinolin-5-yl)-3,3-dimethyl-4-oxoazetidin-1-yl]-1-adamantane carboxyamide] |  | 0.41 |
| COC(=O)[C@]12CC3CC(C1)[C@@H](N1C(=O)C(C)(C)C1c1cccc4cccnc14)C(C3)C2 (stereo partly drawn) [Example 18, methyl trans-4-[2-(quinolin-8-yl)-3,3-dimethyl-4-oxoazetidin-1-yl]-1-adamantane carboxylate] | 0.074 | 0.029 |

| Compound | IC50 (mouse 11β-HSD1) [µM] | IC50 (human 11β-HSD1) [µM] |
| --- | --- | --- |
| CC1(C)C(=O)N([C@H]2C3CC4CC2C[C@](C(N)=O)(C4)C3)C1c1cccc2cccnc12 (stereo partly drawn) [Example 20, trans-4-[2-(quinolin-8-yl)-3,3-dimethyl-4-oxoazetidin-1-yl]-1-adamantane carboxyamide] | 0.053 | 0.057 |
| CC1(C)C(=O)N(C2C3CC4CC(C3)CC2C4)C1c1cccc(Cl)c1F (stereo not drawn) [Example 25, 1-(adamantan-2-yl)-3,3-dimethyl-4-(3-chloro-2-fluorophenyl)azetidin-2-one] | 0.18 | 0.02 |
| CC1(C)C(=O)N(C2C3CC4CC(C3)CC2C4)C1c1cccc(C(F)(F)F)c1F (stereo not drawn) [Example 28, 1-(adamantan-2-yl)-3,3-dimethyl-4-(2-fluoro-3-trifluoromethylphenyl)azetidin-2-one] | 0.16 | 0.029 |
| CC1(C)C(=O)N(C2C3CC4CC(C3)CC2C4)C1c1cccc(C(F)(F)F)c1Cl (stereo not drawn) [Example 30, 1-(adamantan-2-yl)-3,3-dimethyl-4-(2-chloro-3-trifluoromethylphenyl)azetidin-2-one] | 0.13 | 0.016 |
| CC1(C)C(=O)N(C2C3CC4CC(C3)CC2C4)C1c1cc(Cl)cc(Cl)c1 (stereo not drawn) [Example 31, 1-(adamantan-2-yl)-3,3-dimethyl-4-(3,5-dichlorophenyl)azetidin-2-one] | 0.076 | 0.015 |
| CC1(C)C(=O)N(C2C3CC4CC(C3)CC2C4)C1c1ccc(F)c(C(F)(F)F)c1 (stereo not drawn) [Example 32, 1-(adamantan-2-yl)-3,3-dimethyl-4-(4-fluoro-3-trifluoromethylphenyl)azetidin-2-one] |  | 0.024 |
| COc1cccc(C2N(C3C4CC5CC(C4)CC3C5)C(=O)C2(C)C)c1 (stereo not drawn) [Example 34, 1-(adamantan-2-yl)-3,3-dimethyl-4-(3-methoxyphenyl)azetidin-2-one] | 0.031 | 0.012 |
| CC1(C)C(=O)N(C2C3CC4CC(C3)CC2C4)C1c1cc(F)c(F)c(F)c1 (stereo not drawn) [Example 36, 1-(adamantan-2-yl)-3,3-dimethyl-4-(3,4,5-trifluorophenyl)azetidin-2-one] |  | 0.091 |
| CC1(C)C(=O)N(C2C3CC4CC(C3)CC2C4)C1c1ccc(OC(F)(F)F)cc1 (stereo not drawn) [Example 42, 1-(adamantan-2-yl)-3,3-dimethyl-4-(4-trifluoromethoxyphenyl)azetidin-2-one] | 0.69 | 0.006 |
| CC1(C)C(=O)N(C2C3CC4CC(C3)CC2C4)C1c1ccc(Br)cc1 (stereo not drawn) [Example 43, 1-(adamantan-2-yl)-3,3-dimethyl-4-(4-bromophenyl)azetidin-2-one] |  | 0.025 |
| CC1(C)C(=O)N(C2C3CC4CC(C3)CC2C4)C1c1cccc2ccccc12 (stereo not drawn) [Example 45, 1-(adamantan-2-yl)-3,3-dimethyl-4-(naphthalen-1-yl)azetidin-2-one] | 0.0035 | 0.0081 |
| CC1(C)C(=O)N([C@H]2C3CC4CC2C[C@](O)(C4)C3)C1c1cccc(Cl)c1Cl (stereo partly drawn) [Example 46, trans-1-(5-hydroxyadamantan-2-yl)-3,3-dimethyl-4-(2,3-dichlorophenyl)azetidin-2-one] | 0.029 | 0.0081 |
| COC(=O)[C@]12CC3CC(C1)[C@@H](N1C(=O)C(C)(C)C1c1ccnc4ccccc14)C(C3)C2 (stereo partly drawn) [Example 49, methyl trans-4-[2-(quinolin-4-yl)-3,3-dimethyl-4-oxoazetidin-1-yl]-1-adamantane carboxylate] |  | 0.1 |
| CC1(C)C(=O)N([C@H]2C3CC4CC2C[C@](C(N)=O)(C4)C3)C1c1ccnc2ccccc12 (stereo partly drawn) [Example 51, trans-4-[2-(quinolin-4-yl)-3,3-dimethyl-4-oxoazetidin-1-yl]-1-adamantane carboxyamide] |  | 0.08 |
| CC1(C)C(=O)N(C2C3CC4CC(C3)CC2C4)C1c1cc(C(F)(F)F)cc(C(F)(F)F)c1 (stereo not drawn) [Example 54, 1-(adamantan-2-yl)-3,3-dimethyl-4-[3,5-bis(trifluoromethyl)phenyl]azetidin-2-one] |  | 0.91 |
